Structures are written as SMILES.

In assay [1] the target is T1, Na^+,K^+ -ATPase (Canis lupus familiaris, UniProt P50997).
T1 construct: Na^+,K^+ -ATPase receptor purified according to Jorghensen; from tissue
Nature of the assay: inhibition of the activity of the purified Na+,K+-ATPase (% hydrolysis of 32P-ATP). In kind it is biochemical. An excerpt:
(§1) To test the affinity for the receptor site of the Na^+,K^+ -ATPase and the agonist or antagonist activity on the enzyme, the following tests were used:
b) inhibition of the activity of the purified Na^+,K^+ -ATPase measured as % of hydrolysis of ^32 P-ATP in presence and in absence of the tested compound (Doucet A. et al. Am. J. Physiol., 1986, 251, F851)

Assay [2] has as its target T1, Na^+,K^+ -ATPase. Nature of the assay: displacement of the specific 3H-ouabain binding from the purified Na+,K+-ATPase receptor.
Text: as §1
a) displacement of the specific ^3 H-ouabain binding from the Na^+,K^+ -ATPase receptor purified according to Jorghensen (Jorghensen P., BBA. 1974, 356, 36) and Erdmann (Erdmann E. et al., Arzneim. Forsh., 1984, 34, 1314);

Where [3] appears, read: purified Na+,K+-ATPase, 32P-ATP hydrolysis, read-out: Inhibitory Activity log IC50 (converted).
Setting [4] is: 3H-ouabain displacement, purified Na+,K+-ATPase, read-out: Binding ^3 H-Ouab. Displacement log IC50 (converted).

For the compound `CC(/C=N/OCCCN)=C\[C@H]1CC[C@]2(O)[C@@H]3CC[C@@H]4C[C@@H](O)CC[C@]4(C)[C@H]3CC[C@]12C` [Comp. I-ag], the IC50 was 50.1 nM in assay [1] (setting [3]) and 25.1 nM in assay [2] (setting [4]).

Consider `CC(/C=N/NC1=NCCN1)=C\[C@H]1CC[C@]2(O)[C@@H]3CC[C@@H]4C[C@@H](O)CC[C@]4(C)[C@H]3CC[C@]12C` [Comp. I-ab, (E,E)-17β-[3-(2-Imidazolin-2-yl)hydrazono-2-methyl-1-propenyl]-5β-androstane-3β,14β-diol], for which the IC50 in assay [1] (setting [3]) was 3160 nM; in assay [2] (setting [4]) it was 63.1 nM.

`CC(/C=N/OCCN)=C\[C@H]1CC[C@]2(O)[C@@H]3CC[C@@H]4C[C@H](O)CC[C@]4(C)[C@H]3CC[C@]12C` [Comp. I-bc, (E,E)-17β-[3-(2-Aminoethoxyimino)-2-methyl-1-propenyl]-5β-androstane-3α,14β-diol]: the IC50 is 2510 nM in assay [1] and 501 nM in assay [2].

Regarding `CC(/C=N/NC(=N)N)=C\[C@H]1CC[C@]2(O)[C@@H]3CC[C@@H]4C[C@@H](OCCCN)CC[C@]4(C)[C@H]3CC[C@]12C` [Comp. I-az], the IC50 in assay [1] (setting [3]) was 31.6 nM; in assay [2] (setting [4]) it was 25.1 nM.

For the compound `CCC(/C=N/NC(=N)N)=C\[C@H]1CC[C@]2(O)[C@@H]3CC[C@@H]4C[C@@H](O)CC[C@]4(C)[C@H]3CC[C@]12C` [Comp. I-al, (E,E)-17β-(3-Guanidinoimino-2-ethyl-1-propenyl)-5β-androstane-3β,14β-diol], the figures for the IC50 in assay [1] and in assay [2] were 1000 nM and 126 nM, respectively.

On to `CC(/C=N/NC1=NCCCN1)=C\[C@H]1CC[C@]2(O)[C@@H]3CC[C@@H]4C[C@@H](O)CC[C@]4(C)[C@H]3CC[C@]12C` [Comp. I-ad, (E,E)-17β-[3-(1,4,5,6-Tetrahydro-2-pyrimidinyl)hydrazono-2-methyl-1-propenyl]-5β-androstane-3β,14β-diol], for which the IC50 is 2510 nM in assay [1] and 63.1 nM in assay [2] (setting [4]).

For `CC(/C=N/OCCN)=C\[C@H]1CC[C@]2(O)[C@@H]3CC[C@@H]4C[C@@H](OCCN)CC[C@]4(C)[C@H]3CC[C@]12C` [Comp. I-ay, (E,E)-3β-(2-Aminoethoxy)-17β-[3-(2-aminoethoxyimino)-2-methyl-1-propenyl]-5β-androstane-14β-ol], the IC50 is 31.6 nM in assay [1] (setting [3]) and 25.1 nM in assay [2] (setting [4]).

As to `CC(/C=N/NC(=N)N)=C\[C@H]1CC[C@]2(O)[C@@H]3CC[C@@H]4C[C@@H](OCCN5CCCC5)CC[C@]4(C)[C@H]3CC[C@]12C` [Comp. I-at, (E,E)-36-[2-(1-Pyrrolidinyl)ethoxy]-17β-(3-guanidinoimino-2-methyl-1-propenyl]-5β-androstane-14β-ol], the IC50 is 158 nM in assay [1] (setting [3]) and 39.8 nM in assay [2].

Turning to `CC(/C=N/OCCN)=C\[C@H]1CC[C@]2(O)[C@@H]3CC[C@@H]4C[C@H](OCCN5CCCC5)CC[C@]4(C)[C@H]3CC[C@]12C` [Comp. I-bd], the figures for the IC50 in assay [1] and in assay [2] were 3160 nM and 501 nM, respectively.

Turning to `CC(/C=N/OCCNC(=N)N)=C\[C@H]1CC[C@]2(O)[C@@H]3CC[C@@H]4C[C@@H](O)CC[C@]4(C)[C@H]3CC[C@]12C` [Comp. I-aj, (E,E)-17β-[3-(2-Guanidinoethoxyimino)-2-methyl-1-propenyl]-5β-androstane-3β,14β-diol], the IC50 in assay [1] (setting [3]) was 126 nM; in assay [2] it was 50.1 nM.

Turning to `CCC(/C=N/OCCN)=C\[C@H]1CC[C@]2(O)[C@@H]3CC[C@@H]4C[C@@H](O)CC[C@]4(C)[C@H]3CC[C@]12C` [Comp. I-am, (E,E)-17β-[3-(2-Aminoethoxyimino)-2-ethyl-1-propenyl]-5β-androstane-3β,14β-diol], the figures for the IC50 in assay [1] (setting [3]) and in assay [2] (setting [4]) were 126 nM and 63.1 nM, respectively.

For `CCC(/C=N/OCCCN)=C\[C@H]1CC[C@]2(O)[C@@H]3CC[C@@H]4C[C@@H](O)CC[C@]4(C)[C@H]3CC[C@]12C` [Comp. I-an, (E,E)-17β-[3-(3-Aminopropoxyimino)-2-ethyl-1-propenyl]-5β-androstane-3β,14β-diol], the IC50 is 316 nM in assay [1] (setting [3]) and 100 nM in assay [2].

Regarding `CC(/C=N/NC(=N)N)=C\[C@H]1CC[C@]2(O)[C@@H]3CC[C@@H]4C[C@@H](OCCCN5CCCC5)CC[C@]4(C)[C@H]3CC[C@]12C` [Comp. I-av], the IC50 in assay [1] (setting [3]) was 200 nM; in assay [2] it was 50.1 nM.

Take `CC(/C=N/NC(=N)N)=C\[C@H]1CC[C@]2(O)[C@@H]3CC[C@@H]4C[C@@H](OCCN)CC[C@]4(C)[C@H]3CC[C@]12C` [I-ax]: the values for the IC50 in assay [1] (setting [3]) and in assay [2] (setting [4]) were 39.8 nM and 25.1 nM, respectively.

For `CC(/C=N/NC(=N)N)=C\[C@H]1CC[C@]2(O)[C@@H]3CC[C@@H]4C[C@H](O)CC[C@]4(C)[C@H]3CC[C@]12C` [Comp. I-bb, (E,E)-17β-(3-Guanidinoimino-2-methyl-1-propenyl)-5β-androstane-3α,14β-diol], the IC50 in assay [1] is 3160 nM; in assay [2] it was 631 nM.

On to `CC(/C=N/OCCCN(C)C)=C\[C@H]1CC[C@]2(O)[C@@H]3CC[C@@H]4C[C@@H](O)CC[C@]4(C)[C@H]3CC[C@]12C` [Comp. I-ai, (E,E)-17β-[3-(3-Dimethylaminopropoxyimino)-2-methyl-1-propenyl]-5β-androstane-3β,14β-diol], for which the figures for the IC50 in assay [1] (setting [3]) and in assay [2] (setting [4]) were 63.1 nM and 31.6 nM, respectively.

As to `CC(/C=N/OCCN)=C\[C@@]1(O)CC[C@]2(O)[C@@H]3CC[C@@H]4C[C@@H](O)CC[C@]4(C)[C@H]3CC[C@]12C` [Comp. I-ar, (E,E)-17β-[3-(2-Aminoethoxyimino)-2-methyl-1-propenyl]-5β-androstane-3β,14β,17α-triol], the IC50 in assay [1] is 2510 nM; in assay [2] (setting [4]), 316 nM.

For the compound `CC(/C=N/OCCN(C)C)=C\[C@H]1CC[C@]2(O)[C@@H]3CC[C@@H]4C[C@@H](O)CC[C@]4(C)[C@H]3CC[C@]12C` [Comp. I-ah, (E,E)-17β-[3-(2-Dimethylaminoethoxyimino)-2-methyl-1-propenyl]-5β-androstane-3β,14β-diol], the IC50 in assay [1] (setting [3]) is 63.1 nM; in assay [2] (setting [4]) it was 20 nM.

For `CC(/C=N/OCCN)=C\[C@H]1CC[C@]2(O)[C@@H]3CC[C@@H]4C[C@@H](OCC(C)N5CCCC5)CC[C@]4(C)[C@H]3CC[C@]12C` (stereo partly drawn) [Comp. I-aw, (E,E)-3β-[2-(1-Pyrrolidinyl)propoxy]-17β-[3-(2-aminoethoxyimino)-2-methyl-1-propenyl]-5β-androstane-14β-ol], the results for the IC50 in assay [1] (setting [3]) and in assay [2] (setting [4]) were 63.1 nM and 25.1 nM, respectively.

As for `CC(/C=N/OCCN(C)C)=C\[C@@]1(O)CC[C@]2(O)[C@@H]3CC[C@@H]4C[C@@H](O)CC[C@]4(C)[C@H]3CC[C@]12C` [Comp. I-as, (E,E)-17β-[3-(2-Dimethylaminoethoxyimino)-2-methyl-1-propenyl]-5β-androstane-3β,14β,17α-triol], the IC50 is 3160 nM in assay [1] and 398 nM in assay [2] (setting [4]).

Turning to `CC(/C=N/NC(=N)NCCN(C)C)=C\[C@H]1CC[C@]2(O)[C@@H]3CC[C@@H]4C[C@@H](O)CC[C@]4(C)[C@H]3CC[C@]12C` [Comp. I-ae, (E,E)-17β-{3-[3-(2-Dimethylaminoethyl)guanidinoimino]-2-methyl-1-propenyl}-5β-androstane-3β,14β-diol], the IC50 in assay [1] is 6310 nM; in assay [2] it was 501 nM.

In the case of `CCC(/C=N/OCCCN(C)C)=C\[C@H]1CC[C@]2(O)[C@@H]3CC[C@@H]4C[C@@H](O)CC[C@]4(C)[C@H]3CC[C@]12C` [Comp. I-ap, (E,E)-17β-[3-(3-Dimethylaminopropoxyimino)-2-ethyl-1-propenyl]-5β-androstane-3β,14β-diol], the IC50 in assay [1] (setting [3]) was 631 nM; in assay [2], 200 nM.

With `CCC(/C=N/OCCN(C)C)=C\[C@H]1CC[C@]2(O)[C@@H]3CC[C@@H]4C[C@@H](O)CC[C@]4(C)[C@H]3CC[C@]12C` [Comp. I-ao, (E,E)-17β-[3-(2-Dimethylaminoethoxyimino)-2-ethyl-1-propenyl]-5β-androstane-3β,14β-diol], the IC50 in assay [1] (setting [3]) is 501 nM; in assay [2], 126 nM.

On to `CC(/C=N/OCCN)=C\[C@H]1CC[C@]2(O)[C@@H]3CC[C@@H]4C[C@@H](OCCCN)CC[C@]4(C)[C@H]3CC[C@]12C` [Comp. I-ba], for which the results for the IC50 in assay [1] (setting [3]) and in assay [2] (setting [4]) were 39.8 nM and 20 nM, respectively.

On to `CC(/C=N/NC1=NCCN1C)=C\[C@H]1CC[C@]2(O)[C@@H]3CC[C@@H]4C[C@@H](O)CC[C@]4(C)[C@H]3CC[C@]12C` [Comp. I-ac, (E,E)-17β-[3-(1-Methyl-2-imidazolin-2-yl)hydrazono-2-methyl-1-propenyl]-5β-androstane-3β,14β-diol], for which the IC50 in assay [1] was 3980 nM; in assay [2] (setting [4]) it was 316 nM.

With `CC(/C=N/OCCN)=C\[C@H]1CC[C@]2(O)[C@@H]3CC[C@@H]4C[C@@H](OCCN5CCCC5)CC[C@]4(C)[C@H]3CC[C@]12C` [Comp. I-au], the IC50 in assay [1] (setting [3]) is 39.8 nM; in assay [2] (setting [4]), 20 nM.

Regarding `CC(/C=N/NC(=N)N)=C\[C@@]1(O)CC[C@]2(O)[C@@H]3CC[C@@H]4C[C@@H](O)CC[C@]4(C)[C@H]3CC[C@]12C` [Comp. I-aq, (E,E)-17β-(3-Guanidinoimino-2-methyl-1-propenyl]-5β-androstane-3β,14β,17α-triol], the IC50 in assay [1] is 3980 nM; in assay [2] (setting [4]), 398 nM.

Take `CC(/C=N/OCCCNC(=N)N)=C\[C@H]1CC[C@]2(O)[C@@H]3CC[C@@H]4C[C@@H](O)CC[C@]4(C)[C@H]3CC[C@]12C` [Comp. I-ak, (E,E)-17β-[3-(3-Guanidinopropoxyimino)-2-methyl-1-propenyl]-5β-androstane-3β,14β-diol]: the values for the IC50 in assay [1] and in assay [2] (setting [4]) were 200 nM and 63.1 nM, respectively.

Values taken from patent publication US5705662A, “17-(3-imino-2-alkylpropenyl)-5β, 14β-androstane derivatives active on the cardiovascular system, processes for their preparation and pharmaceutical compositions containing same” (Sigma-Tau Industrie Farmaceutiche Riunite S.p.A., priority 1994, dated 1998).
